The record followed here is US12686690B2, “Macrocyclic urea orexin receptor agonists” (Merck Sharp & Dohme LLC, priority 2020, dated 2026).

This test concerns the target T1, hOX2R (Homo sapiens, UniProt O43614).
T1 construct: expressed in transfected cells; host or cells: CHO cells (G418 selection)
T1 sequence (O43614 1-444): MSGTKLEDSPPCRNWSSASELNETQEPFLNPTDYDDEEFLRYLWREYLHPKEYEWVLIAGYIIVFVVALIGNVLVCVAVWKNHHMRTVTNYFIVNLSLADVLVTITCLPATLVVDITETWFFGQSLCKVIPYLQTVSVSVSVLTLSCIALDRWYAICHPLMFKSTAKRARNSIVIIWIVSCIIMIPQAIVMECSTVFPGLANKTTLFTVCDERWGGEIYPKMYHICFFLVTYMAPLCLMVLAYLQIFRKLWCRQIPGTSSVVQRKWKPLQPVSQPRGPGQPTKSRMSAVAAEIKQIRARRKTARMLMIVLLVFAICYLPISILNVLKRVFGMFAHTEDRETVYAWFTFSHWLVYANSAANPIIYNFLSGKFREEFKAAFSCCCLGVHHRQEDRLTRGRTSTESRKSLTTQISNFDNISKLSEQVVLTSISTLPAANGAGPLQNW
Description: hOX2R IPone assay (orexin receptor agonism). It counts as cell-based. To be noted: IPone readout; for hOX2R_Ipone max %act: maximal activation; for EC50: orexin receptor agonist, read-out: hOX2R_IPone EC50.

Molecules are shown by their SMILES.

For the compound `CCN1C(=O)N[C@@H](CCC(F)(F)F)CCCCCOc2cc(cc3ccnn23)-c2cc(nnc2OC)[C@H]1C` [Example 140, (3R,7R,E)-4-ethyl-26-methoxy-3-methyl-7-(3,3,3-trifluoropropyl)-13-oxa-4,6-diaza-1(5,7)-pyrazolo[1,5-a]pyridina-2(5,3)-pyridazinacyclotridecaphan-5-one], the hOX2R_Ipone max %act is listed as 101.9% and the EC50 (in general, the concentration giving half of the maximal effect) turned out to be 1.4 nM.
For `CCN1C(=O)N[C@@H](C)C(F)(F)CCCCOc2nc(cn3ccnc23)-c2cc(ncc2OC)[C@H]1C` [Example 141, (3R,7S,E)-4-ethyl-8,8-difluoro-25-methoxy-3,7-dimethyl-13-oxa-4,6-diaza-1(6,8)-imidazo[1,2-a]pyrazina-2(4,2)-pyridinacyclotridecaphan-5-one] the same measures were 99.01% and 8.35 nM.
Take `CCN1C(=O)N[C@@H](CCC(F)(F)F)CCCCCOc2nc(cn3ncnc23)-c2ccnc(c2)[C@H]1C` [Example 142, (3R,7R,E)-4-ethyl-3-methyl-7-(3,3,3-trifluoropropyl)-13-oxa-4,6-diaza-1(6,8)-[1,2,4]triazolo[1,5-a]pyrazina-2(4,2)-pyridinacyclotridecaphan-5-one]: the hOX2R_Ipone max %act was determined as 100.3% and the concentration giving a half-maximal response (EC50) was found to be 4.71 nM.
Consider `CCN1C(=O)N[C@@H](CCC(F)(F)F)CCCCCOc2nc(cn3ccnc23)-c2ccnc(c2)C1(C)C` [Example 143, (R,E)-4-ethyl-3,3-dimethyl-7-(3,3,3-trifluoropropyl)-13-oxa-4,6-diaza-1(6,8)-imidazo[1,2-a]pyrazina-2(4,2)-pyridinacyclotridecaphan-5-one], for which the hOX2R_Ipone max %act is 89.95% and the EC50 was determined as 271 nM.
For `CCN1C(=O)N[C@@H](CCC(F)(F)F)CCCCOCc2nc(cn3ccnc23)-c2cc(ncc2OC)[C@H]1C` [Example 144, (3R,7R,E)-4-ethyl-25-methoxy-3-methyl-7-(3,3,3-trifluoropropyl)-12-oxa-4,6-diaza-1(6,8)-imidazo[1,2-a]pyrazina-2(4,2)-pyridinacyclotridecaphan-5-one], the hOX2R_Ipone max %act was determined as 101.4% and the EC50 was 6.09 nM.
As to `CCN1C(=O)NC2CC2CCCCOc2cn3ccnc3c(n2)-c2cc(ncc2OC)C1C` [Example 145, (3R,E)-4-ethyl-25-methoxy-3-methyl-12-oxa-4,6-diaza-1(6,8)-imidazo[1,2-a]pyrazina-2(4,2)-pyridina-7(1,2)-cyclopropanacyclododecaphan-5-one], the hOX2R_Ipone max %act was found to be 103.8% and the EC50 stood at 4.4 nM.
The like results for `CCN1C(=O)N[C@@H](CCC(C)(F)F)CCCCCOc2nc(cn3ncnc23)-c2cc(cnc2C)[C@H]1C` [Example 146, (3R,7R,E)-7-(3,3-difluorobutyl)-4-ethyl-22,3-dimethyl-13-oxa-4,6-diaza-1(6,8)-[1,2,4]triazolo[1,5-a]pyrazina-2(3,5)-pyridinacyclotridecaphan-5-one] were, in that order, 100.8% and 14.7 nM.
In the case of `CCN1C(=O)N[C@@H](CCC(F)(F)F)CCCCCOc2nc(cn3ncnc23)-c2nc(ncc2OC)[C@H]1C` [Example 147, (3R,7R,E)-4-ethyl-25-methoxy-3-methyl-7-(3,3,3-trifluoropropyl)-13-oxa-4,6-diaza-1(6,8)-[1,2,4]triazolo[1,5-a]pyrazina-2(4,2)-pyrimidinacyclotridecaphan-5-one], the hOX2R_Ipone max %act was found to be 102.4% and the EC50 is 3.69 nM.
Take `CCN1C(=O)N[C@@H](CCC(C)(F)F)CCOCCOc2nc(cn3ncnc23)-c2cc(cnc2OC)[C@H]1C` [Example 148, (3R,7S,E)-7-(3,3-difluorobutyl)-4-ethyl-22-methoxy-3-methyl-10,13-dioxa-4,6-diaza-1(6,8)-[1,2,4]triazolo[1,5-a]pyrazina-2(3,5)-pyridinacyclotridecaphan-5-one]: the hOX2R_Ipone max %act was 101.7% and the EC50 was 1.7 nM.
Consider `CCN1C(=O)N[C@@H](CCC(F)(F)F)CCCCCOc2cc(nn3ccnc23)-c2cc(ncc2OC)[C@H]1C` [Example 149, (3R,7R,E)-4-ethyl-25-methoxy-3-methyl-7-(3,3,3-trifluoropropyl)-13-oxa-4,6-diaza-1(6,8)-imidazo[1,2-b]pyridazina-2(4,2)-pyridinacyclotridecaphan-5-one], for which the hOX2R_Ipone max %act was 109.6% and the EC50 is 1.11 nM.
Regarding `CCN1C(=O)N[C@@H](CCC(F)(F)F)CCOCCOc2cc(cn3ncnc23)-c2cc(ncc2OC)[C@H]1C` [Example 150, (3R,7S,E)-4-ethyl-25-methoxy-3-methyl-7-(3,3,3-trifluoropropyl)-10,13-dioxa-4,6-diaza-1(6,8)-[1,2,4]triazolo[1,5-a]pyridina-2(4,2)-pyridinacyclotridecaphan-5-one], the hOX2R_Ipone max %act stood at 103% and the EC50 amounted to 2.43 nM.
As to `CCN1C(=O)NC(CC(C)(F)F)CCCCCOc2cn3ccnc3c(n2)-c2cc(ncc2OC)C1C` [Example 151, (3R,7R,E)-7-(2,2-difluoropropyl)-4-ethyl-25-methoxy-3-methyl-13-oxa-4,6-diaza-1(6,8)-imidazo[1,2-a]pyrazina-2(4,2)-pyridinacyclotridecaphan-5-one], the hOX2R_Ipone max %act was 108.6% and the EC50 stood at 0.51 nM.
Consider `CCN1C(=O)N[C@@H](c2nccnc2C)CCCCCOc2nc(cn3ccnc23)-c2cc(ncc2OC)[C@H]1C` [Example 152, (3R,7R,E)-4-ethyl-25-methoxy-3-methyl-7-(3-methylpyrazin-2-yl)-13-oxa-4,6-diaza-1(6,8)-imidazo[1,2-a]pyrazina-2(4,2)-pyridinacyclotridecaphan-5-one], for which the hOX2R_Ipone max %act worked out at 106.5% and the EC50 came out at 4.17 nM.
`CCN1C(=O)N[C@@H](CCC(C)(F)F)COCCCOc2nc(cn3ncnc23)-c2cc(ncc2C)[C@H]1C` [Example 153, (3R,7S,E)-7-(3,3-difluorobutyl)-4-ethyl-25,3-dimethyl-9,13-dioxa-4,6-diaza-1(6,8)-[1,2,4]triazolo[1,5-a]pyrazina-2(4,2)-pyridinacyclotridecaphan-5-one]: the hOX2R_Ipone max %act came to 107.8% and the EC50 was 2.2 nM.
For `CCN1C(=O)N[C@@H](CCS(C)(=O)=O)CCCCCOc2nc(cn3ncnc23)-c2cc(ncc2OC)[C@H]1C` [Example 154, (3R,7R,E)-4-ethyl-25-methoxy-3-methyl-7-(2-(methylsulfonyl)ethyl)-13-oxa-4,6-diaza-1(6,8)-[1,2,4]triazolo[1,5-a]pyrazina-2(4,2)-pyridinacyclotridecaphan-5-one] the same measures were 106.1% and 1.05 nM.
Consider `CCN1C(=O)N[C@@H](CCC(C)(F)F)CCOCCOc2nc(nn3ccnc23)-c2cc(ncc2OC)[C@H]1C` [Example 155, (3R,7S,E)-7-(3,3-difluorobutyl)-4-ethyl-25-methoxy-3-methyl-10,13-dioxa-4,6-diaza-1(2,4)-imidazo[2,1-f][1,2,4]triazina-2(4,2)-pyridinacyclotridecaphan-5-one], for which the hOX2R_Ipone max %act is reported as 96.86% and the EC50 is 0.74 nM.
For the compound `CCN1C(=O)NC(CCC(F)(F)F)CCCCCOc2cc(n3nccc3c2)-c2ccnc(c2)C1C` [Example 156, (3R,7R,E)-4-ethyl-3-methyl-7-(3,3,3-trifluoropropyl)-13-oxa-4,6-diaza-1(5,7)-pyrazolo[1,5-a]pyridina-2(4,2)-pyridinacyclotridecaphan-5-one], the hOX2R_Ipone max %act amounted to 100.3% and the EC50 stood at 1.32 nM.
`CCN1C(=O)N[C@@H](CCC(F)(F)F)CCCCCOc2cc(cc3cccnc23)-c2cc(ncc2OC)[C@H]1C` [Example 157, (3R,7R)-4-ethyl-25-methoxy-3-methyl-7-(3,3,3-trifluoropropyl)-13-oxa-4,6-diaza-1(6,8)-quinolina-2(4,2)-pyridinacyclotridecaphan-5-one]: the hOX2R_Ipone max %act is reported as 99.72% and the EC50 stood at 2.68 nM.
For `C[C@@H]1c2cc(ccn2)-c2cn3ccnc3c(n2)OCCCCC[C@H](CCC(F)(F)F)NC(=O)N1C` [Example 158, (3R,7R,E)-3,4-dimethyl-7-(3,3,3-trifluoropropyl)-13-oxa-4,6-diaza-1(6,8)-imidazo[1,2-a]pyrazina-2(4,2)-pyridinacyclotridecaphan-5-one] the same measures were 102% and 3.87 nM.
Consider `CCN1C(=O)N[C@@H](CCC(F)(F)F)CCCCCOc2nc(cn3ccnc23)-c2cnnc(c2)[C@H]1C` [Example 159, (3R,7R,E)-4-ethyl-3-methyl-7-(3,3,3-trifluoropropyl)-13-oxa-4,6-diaza-1(6,8)-imidazo[1,2-a]pyrazina-2(5,3)-pyridazinacyclotridecaphan-5-one], for which the hOX2R_Ipone max %act was 72.77% and the EC50 turned out to be 541 nM.
The like results for `CCN1C(=O)N[C@@H](CCC(C)(F)F)CCCCCOc2nc(c(C)n3ccnc23)-c2cc(ccn2)[C@H]1C` [Example 160, (3R,7R,E)-7-(3,3-difluorobutyl)-4-ethyl-15,3-dimethyl-13-oxa-4,6-diaza-1(6,8)-imidazo[1,2-a]pyrazina-2(2,4)-pyridinacyclotridecaphan-5-one] were, in that order, 101.4% and 0.77 nM.
Regarding `CCN1C(=O)N[C@@H](CCC(F)(F)F)CCOCCOc2nc(cn3ccnc23)-c2cc(ccn2)[C@H]1C` [Example 161, (3R,7S,E)-4-ethyl-3-methyl-7-(3,3,3-trifluoropropyl)-10,13-dioxa-4,6-diaza-1(6,8)-imidazo[1,2-a]pyrazina-2(2,4)-pyridinacyclotridecaphan-5-one], the hOX2R_Ipone max %act was 101.7% and the half-maximal effective concentration (EC50) is 2.66 nM.
